Like-named read-outs stand apart in the source and are kept apart here.
Key:
[1] = biological target: Full length SHP2 protein (Recombinant Human SHP-2) (Homo sapiens (Human), UniProt Q06124); experiment: SHP2 biochemical assay (DiFMUP substrate, activating peptide IRSI_2pY); conditions: activating peptide IRSI_2pY 140 nM, DiFMUP, 60 min
Protocol: The inhibition of SHP2 by compounds of the invention was monitored using the surrogate substrate DiFMUP after protein activation by a peptide bearing two appropriately spaced phosphotyrosine. […] The generation of the DiFMU product by activated SHP2 was monitored through Fluorescence measurement with a PerkinElmer Envision reader. The inhibitor dose response curves were analyzed with Genedata Screener.

[2] = test system: pERK1/2 in KYSE520 cells; experiment: p-Erk cellular assay in KYSE520 (Mesoscale); assay type: cell-based; conditions: read-out: pERK1/2 in Cell KYSE520 IC50
Protocol: p-Erk Cellular Assay in KYSE520: The effect of SHP2 inhibitors on pERK level was assessed using phospho-specific antibody using Mesoscale quantification platform. For measuring change in pERK levels using mesoscale, 30,000 cells of KYSE520 cells were plated in 96-well tissue culture treated plate in 175 μl volume of media. After an overnight incubation at 37° C., various SHP2 inhibitors were added in different concentration to each well maintaining duplicate wells across plates and incubated with compounds for 2 h at 37° C. followed by a wash with ice cold PBS buffer. The cells were then lysed in lysis buffer and processed and analyzed for p-ERK/ERK as per manufacturer's instructions (Mesoscale discovery, cat No. […]-3).

[3] = SHP-2 biochemical assay IC50 (μM)
[4] = read-out: SHP-2 biochemical assay IC50

Compound	IC50 [1, 3] [µM]	IC50 ([2]; 2 h) [nM]	IC50 [1, 4] [µM]	IC50 ([2]; Homo sapiens, KYSE-520, 2 h) [nM]
Cc1c(N2CCC3(CC2)Cc2ccccc2[C@H]3N)nc(C)n(-c2cccc(Cl)c2Cl)c1=O (atropisomer, axis not shown) [Compound 74b, (3P)-6-[(1S)-1-amino-1,3-dihydrospiro[indene-2,4′-piperidin]-1′-yl]-3-(2,3-dichlorophenyl)-2,5-dimethyl-3,4-dihydropyrimidin-4-one]	0.026	624	–	–
Cc1c(N2CCC3(CC2)C[C@H](C)C[C@H]3N)nc(C)n(-c2cccc(Cl)c2Cl)c1=O (atropisomer, axis not shown) [Compound 111a, (3M)-6-[(1R,3S)-1-amino-3-methyl-8-azaspiro[4.5]decan-8-yl]-3-(2,3-dichlorophenyl)-2,5-dimethyl-3,4-dihydropyrimidin-4-one]	–	–	0.093	720
Cc1nc(N2CCC(C)(N)CC2)cc(=O)n1-c1cccc(Cl)c1Cl (single isomer, unassigned) [Compound 2b, (3M)-6-(4-amino-4-methylpiperidin-1-yl)-3-(2,3-dichlorophenyl)-2-methyl-3,4-dihydropyrimidin-4-one]	–	–	–	4250
Cc1nc(N2CCC3(CC2)CO[C@@H](C)[C@H]3N)nc(=O)n1-c1cccc(Cl)c1Cl (single isomer, unassigned) [Compound 37a]	–	–	1.1	11300
Cc1nc(N2CCC3(CCC[C@H]3N)CC2)cc(=O)n1-c1cccc(Cl)c1Cl (single isomer, unassigned) [Compound 62b]	0.081	–	–	526
[2H]C([2H])([2H])c1c(N2CCC3(CC2)CO[C@@H](C)[C@H]3N)nc(C)n(-c2cccc(Cl)c2Cl)c1=O (single isomer, unassigned) [Compound 63b]	0.015	177	–	–
Cc1c(N2CCC3(CCC[C@H]3N)CC2)nc(N)n(-c2cccc(Cl)c2Cl)c1=O (single isomer, unassigned) [Compound 78d]	0.19	–	–	1330
Cc1c(N2CCC3(CC2)Oc2cnccc2[C@H]3N)nc(C)n(-c2cccc(Cl)c2Cl)c1=O (single isomer, unassigned) [Compound 80a]	1.4	–	–	> 10000
Cc1c(N2CCC3(CC2)Oc2cnccc2[C@@H]3N)nc(C)n(-c2cccc(Cl)c2Cl)c1=O (single isomer, unassigned) [Compound 80b]	> 10	16000	–	–
Cc1nc(N2CCC3(CC2)Cc2ccccc2[C@H]3N)cc(=O)n1-c1cccc(Cl)c1Cl (single isomer, unassigned) [Compound 119b]	–	–	0.0008	5
Cc1nc(N2CCC(C)(N)CC2)cc(=O)n1-c1cccc(Cl)c1Cl [Compound 2, 6-(4-amino-4-methylpiperidin-1-yl)-3-(2,3-dichlorophenyl)-2-methyl-3,4-dihydropyrimidin-4-one]	–	–	–	5570
C[C@@H]1OCC2(CCN(c3cc(=O)n(-c4cccc(Cl)c4Cl)c(N)n3)CC2)[C@@H]1N [Compound 5, 2-amino-6-[(3S,4S)-4-amino-3-methyl-2-oxa-8-azaspiro[4.5]decan-8-yl]-3-(2,3-dichlorophenyl)-3,4-dihydropyrimidin-4-one]	–	–	0.76	14500
Cc1c(N2CCC(C)(CN)CC2)nc(C)n(-c2cccc(Cl)c2Cl)c1=O [Compound 18, 6-[4-(aminomethyl)-4-methylpiperidin-1-yl]-3-(2,3-dichlorophenyl)-2,5-dimethyl-3,4-dihydropyrimidin-4-one]	–	–	0.37	1320
Cc1nc(N2CCC(N)(CCO)CC2)cc(=O)n1-c1cccc(Cl)c1Cl [Compound 26, 6-[4-amino-4-(2-hydroxyethyl)piperidin-1-yl]-3-(2,3-dichlorophenyl)-2-methyl-3,4-dihydropyrimidin-4-one]	–	–	0.38	2290
Cc1nc(N2CCC3(CCC[C@H]3N)CC2)cc(=O)n1-c1cccc(Cl)c1Cl [Compound 27, 6-{(R)-1-amino-8-azaspiro[4.5]decan-8-yl}-3-(2,3-dichlorophenyl)-2-methyl-3,4-dihydropyrimidin-4-one]	–	–	0.051	239
Cc1nc(N2CCC(N)(CO)CC2)cc(=O)n1-c1cccc(Cl)c1Cl [Compound 29, 6-[4-amino-4-(hydroxymethyl)piperidin-1-yl]-3-(2,3-dichlorophenyl)-2-methyl-3,4-dihydropyrimidin-4-one]	–	–	0.51	2780

Compound	IC50 [1, 3] [µM]	IC50 ([2]; 2 h) [nM]	IC50 [1, 4] [µM]	IC50 ([2]; Homo sapiens, KYSE-520, 2 h) [nM]
Cc1nc(N2CCC3(CCC3N)CC2)cc(=O)n1-c1cccc(Cl)c1Cl (stereo not drawn) [Compound 35, 6-{1-amino-7-azaspiro[3.5]nonan-7-yl}-3-(2,3-dichlorophenyl)-2-methyl-3,4-dihydropyrimidin-4-one]	–	–	0.56	600
[2H]C([2H])([2H])c1c(N2CCC3(CC2)CO[C@@H](C)[C@H]3N)nc(C)n(-c2cccc(Cl)c2Cl)c1=O [Compound 63, 6-[(3S,4S)-4-amino-3-methyl-2-oxa-8-azaspiro[4.5]decan-8-yl]-3-(2,3-dichlorophenyl)-5-(^2H3)methyl-2-methyl-3,4-dihydropyrimidin-4-one]	0.039	467	–	–
Cc1c(N2CCC3(CCC[C@H]3N)CC2)nc(C)n(-c2cccc(Cl)c2Cl)c1=O [Compound 67b, (3M)-6-[(1R)-1-amino-8-azaspiro[4.5]decan-8-yl]-3-(2,3-dichlorophenyl)-2,5-dimethyl-3,4-dihydropyrimidin-4-one]	–	198	0.041	–
Cc1c(N2CCC3(CC2)c2ncccc2C[C@H]3N)nc(C)n(-c2cccc(Cl)c2Cl)c1=O [Compound 75, (3M)-6-[(6R)-6-amino-5,6-dihydrospiro[cyclopenta[b]pyridine-7,4′-piperidin]-1′-yl]-3-(2,3-dichlorophenyl)-2,5-dimethyl-3,4-dihydropyrimidin-4-one]	–	824	–	–
Cc1c(N2CCC3(CC2)Oc2ncccc2[C@@H]3N)nc(C)n(-c2cccc(Cl)c2Cl)c1=O [Compound 79b, (3M)-6-[(3S)-3-amino-3H-spiro[furo[2,3-b]pyridine-2,4′-piperidin]-1′-yl]-3-(2,3-dichlorophenyl)-2,5-dimethylpyrimidin-4-one]	0.006	–	–	102
Cc1c(N2CCC3(CCC3N)CC2)nc(C)n(-c2cccc(Cl)c2Cl)c1=O (stereo not drawn) [Compound 82, 6-1-amino-7-azaspiro[3.5]nonan-7-yl-3-(2,3-dichlorophenyl)-2,5-dimethyl-3,4-dihydropyrimidin-4-one]	–	–	0.56	6630
Cc1c(N2CCC3(CC2)CO[C@@H](C)[C@H]3N)nc(C)n(-c2cccc(Br)c2Cl)c1=O [Compound 95, 6-((3S,4S)-4-Amino-3-methyl-2-oxa-8-aza-spiro[4.5]dec-8-yl)-3-(3-bromo-2-chloro-phenyl)-2,5-dimethyl-3H-pyrimidin-4-one]	–	–	0.027	604
Cc1c(N2CCC3(CC2)CO[C@@H](C)[C@H]3N)nc(C)n(-c2cccc(F)c2Cl)c1=O [Compound 96, 6-((3S,4S)-4-Amino-3-methyl-2-oxa-8-aza-spiro[4.5]dec-8-yl)-3-(2-chloro-3-fluoro-phenyl)-2,5-dimethyl-3H-pyrimidin-4-one]	–	–	0.15	2000
Cc1c(N2CCC3(CC2)CO[C@@H](C)[C@H]3N)nc(C)n(-c2cccc(Cl)c2Br)c1=O [Compound 97, 6-((3S,4S)-4-Amino-3-methyl-2-oxa-8-aza-spiro[4.5]dec-8-yl)-3-(2-bromo-3-chloro-phenyl)-2,5-dimethyl-3H-pyrimidin-4-one]	–	–	0.078	1300
Cc1c(N2CCC3(CC2)CO[C@@H](C)[C@H]3N)nc(C)n(-c2ccc(F)c(Cl)c2Cl)c1=O [Compound 99, 6-((3S,4S)-4-Amino-3-methyl-2-oxa-8-aza-spiro[4.5]dec-8-yl)-3-(2,3-dichloro-4-fluoro-phenyl)-2,5-dimethyl-3H-pyrimidin-4-one]	–	–	0.028	955
Cc1c(F)ccc(-n2c(C)nc(N3CCC4(CC3)CO[C@@H](C)[C@H]4N)c(C)c2=O)c1Cl [Compound 103, 6-((3S,4S)-4-Amino-3-methyl-2-oxa-8-aza-spiro[4.5]dec-8-yl)-3-(2-chloro-4-fluoro-3-methyl-phenyl)-2,5-dimethyl-3H-pyrimidin-4-one]	–	–	0.067	2740
Cc1c(N2CCC3(CC2)Cc2ccccc2[C@H]3N)nc(C)n(-c2cccc(Br)c2Cl)c1=O [Compound 104, 6-[(1S)-1-amino-1,3-dihydrospiro[indene-2,4′-piperidin]-1′-yl]-3-(3-bromo-2-chlorophenyl)-2,5-dimethyl-3,4-dihydropyrimidin-4-one]	–	–	0.005	26
COc1c(F)ccc(-n2c(C)nc(N3CCC4(CC3)Cc3ccccc3[C@H]4N)c(C)c2=O)c1F [Compound 105, 6-[(1S)-1-amino-1,3-dihydrospiro[indene-2,4′-piperidin]-1′-yl]-3-(2,4-difluoro-3-methoxyphenyl)-2,5-dimethyl-3,4-dihydropyrimidin-4-one]	–	–	0.006	10
Cc1c(N2CCCC(N)(CC(C)O)CC2)nc(C)n(-c2cccc(Cl)c2Cl)c1=O (stereo not drawn) [Compound 115, (3M)-6-[4-amino-4-(2-hydroxypropyl)azepan-1-yl]-3-(2,3-dichlorophenyl)-2,5-dimethyl-3,4-dihydropyrimidin-4-one]	–	–	3.8	–
(3M)-6-[(3aR,6aS)-3a-(aminomethyl)-5- (hydroxymethyl)- octahydrocyclopenta[c]pyrrol-2-yl]-3- (2,3-dichlorophenyl)-2,5-dimethyl-3,4- dihydropyrimidin-4-one [Compound 101]	–	–	0.23	–

From US11001561B2, “Pyrimidinone derivatives as SHP2 antagonists” (MERCK PATENT GMBH, priority 2019, dated 2021)
